Each block holds one compound with its values, some of them ahead of it.
Assays:
[1] = Half life in rat liver microsomes; type: ADME, Microsome
[2] = Half life in Swiss Webster mouse at 2 mg/kg, iv; type: ADME, organism-based; parameters: dose 2 mg/kg, route intravenous; conditions: in vivo
[3] = AUClast in Beagle dog at 10 mg/kg, po; type: ADME, organism-based, Canis lupus familiaris; parameters: time 0 - last, dose 10 mg/kg, route oral; conditions: plasma
[4] = Half life in Beagle dog at 2 mg/kg, iv; type: ADME, organism-based, Canis lupus familiaris; parameters: dose 2 mg/kg, route intravenous; conditions: in vivo
[5] = AUClast in Swiss Webster mouse at 10 mg/kg, po; type: ADME, organism-based; parameters: time 0 - last, dose 10 mg/kg, route oral; conditions: plasma
[6] = Clearance in Sprague-Dawley rat at 2 mg/kg, iv; type: ADME, organism-based; parameters: dose 2 mg/kg, route intravenous; conditions: in vivo
[7] = Cmax in Sprague-Dawley brain rat at 10 mg/kg, po; type: ADME, organism-based; parameters: dose 10 mg/kg, route oral
[8] = Cmax in Sprague-Dawley rat at 10 mg/kg, po; type: ADME, organism-based; parameters: dose 10 mg/kg, route oral; conditions: in vivo
[9] = AUClast in Sprague-Dawley rat at 10 mg/kg, po; type: ADME, organism-based; parameters: time 0 - last, dose 10 mg/kg, route oral; conditions: plasma
[10] = Cmax in Swiss Webster mouse at 10 mg/kg, po; type: ADME, organism-based; parameters: dose 10 mg/kg, route oral; conditions: in vivo
[11] = Clearance in Swiss Webster mouse at 2 mg/kg, iv; type: ADME, organism-based; parameters: dose 2 mg/kg, route intravenous; conditions: in vivo
[12] = Cmax in Beagle dog at 10 mg/kg, po; type: ADME, organism-based, Canis lupus familiaris; parameters: dose 10 mg/kg, route oral; conditions: in vivo
[13] = Oral bioavailability in Beagle dog at 10 mg/kg; type: ADME, organism-based, Canis lupus familiaris; conditions: in vivo
[14] = Ratio of drug level in brain to plasma in Sprague-Dawley rat at 10 mg/kg, po; type: ADME, organism-based; parameters: dose 10 mg/kg, route oral
[15] = Ratio of drug level in brain to plasma in Swiss Webster mouse at 10 mg/kg, po; type: ADME, organism-based; parameters: dose 10 mg/kg, route oral
[16] = Volume of distribution at steady state in Sprague-Dawley rat at 2 mg/kg, iv; type: ADME, organism-based; parameters: dose 2 mg/kg, route intravenous; conditions: in vivo, read-out: Vdss
[17] = Oral bioavailability in Swiss Webster mouse at 10 mg/kg; type: ADME, organism-based; conditions: in vivo
[18] = Clearance in Beagle dog at 2 mg/kg, iv; type: ADME, organism-based, Canis lupus familiaris; parameters: dose 2 mg/kg, route intravenous; conditions: in vivo
[19] = Cmax in Swiss Webster mouse brain at 10 mg/kg, po; type: ADME, organism-based; parameters: dose 10 mg/kg, route oral
[20] = Volume of distribution at steady state in Beagle dog at 2 mg/kg, iv; type: ADME, organism-based, Canis lupus familiaris; parameters: dose 2 mg/kg, route intravenous; conditions: in vivo, read-out: Vdss
[21] = Oral bioavailability in Sprague-Dawley rat at 10 mg/kg; type: ADME, organism-based; conditions: in vivo
[22] = Volume of distribution at steady state in Swiss Webster mouse at 2 mg/kg, iv; type: ADME, organism-based; parameters: dose 2 mg/kg, route intravenous; conditions: in vivo, read-out: Vdss
[23] = Half life in Sprague-Dawley rat at 2 mg/kg, iv; type: ADME, organism-based; parameters: dose 2 mg/kg, route intravenous; conditions: in vivo

SMILES: COc1ccc(C(=O)N2CCN(c3ccncn3)CC2)cc1C#Cc1ccccn1
half-life [1]: 18 min

SMILES: COc1ccc(C(=O)N2CCN(c3cnccn3)CC2)cc1C#Cc1ccccc1
half-life [1]: 5 min

SMILES: COc1ccc(C(=O)N2CCN(c3ccc(C)cn3)CC2)cc1C#Cc1ccccc1
half-life [1]: 16 min

SMILES: COc1ccc(C(=O)N2CCN(c3ccncn3)CC2)cc1C#Cc1cccc(Cl)c1
half-life [1]: 7 min

SMILES: COc1ccc(C(=O)N2CCN(c3ccc(C)cn3)CC2)cc1C#Cc1ccccn1
half-life [1]: > 30 min

SMILES: COc1ccc(C(=O)N2CCN(c3ccccn3)CC2)cc1C#Cc1nccs1
half-life [1]: 15 min

SMILES: Cc1ccc(C(=O)N2CCN(c3cnccn3)CC2)cc1C#Cc1ccccc1
half-life [1]: 9 min

SMILES: COc1ccc(C(=O)N2CCN(c3ccncn3)CC2)cc1C#Cc1ccccc1
half-life [1]: 21 min

SMILES: COc1ccc(C(=O)N2CCN(c3ccccn3)CC2)cc1C#Cc1cccc(C)n1
half-life [1]: 11 min

More lines, now with the values ahead:

half-life [1]: 3 min
SMILES: O=C(c1cccc(C#Cc2ccccc2)c1)N1CCN(c2ccncn2)CC1

half-life [1]: 4 min
SMILES: O=C(c1cccc(C#CCc2ccccc2)c1)N1CCN(c2ccccn2)CC1

half-life [1]: 2 min
SMILES: Nc1cccc(C#Cc2cccc(C(=O)N3CCN(c4ccccn4)CC3)c2)c1

half-life [1]: 13 min
SMILES: Cc1ccc(C(=O)N2CCN(c3ccccn3)CC2)cc1C#Cc1ccccc1

half-life [1]: 5 min
SMILES: O=C(c1cccc(C#Cc2ccccn2)c1)N1CCN(c2ccccn2)CC1

half-life [1]: 13 min
SMILES: Cc1ccc(N2CCN(C(=O)c3cccc(C#Cc4ccccc4)c3)CC2)nc1

half-life [1]: 4 min
SMILES: O=C(c1cccc(C#Cc2ccccc2)c1)N1CCN(c2cnccn2)CC1

half-life [1]: 13 min
SMILES: COc1ccc(C(=O)N2CCN(c3ccccn3)CC2)cc1C#Cc1ccccc1

half-life [1]: 5 min
SMILES: Cc1ccc(C#Cc2cccc(C(=O)N3CCN(c4ccccn4)CC3)c2)cc1

half-life [1]: 4 min
SMILES: COc1ccc(C#Cc2cccc(C(=O)N3CCN(c4ccccn4)CC3)c2)cc1

half-life [1]: 3 min
SMILES: COc1cccc(C#Cc2cccc(C(=O)N3CCN(c4ccccn4)CC3)c2)c1

half-life [1]: 3 min
SMILES: O=C(c1cccc(C#Cc2ccccc2)c1)N1CCN(c2ccccn2)CC1

half-life [2]: 12 min
AUC(0-t) [3]: 47100 ng·h/mL
half-life [1]: 23 min
half-life [4]: 126 min
AUC(0-t) [5]: 519 ng·h/mL
clearance [6]: 12 mL/min/kg
Cmax [7]: 1.79 µM
Cmax [8]: 11.9 µM
AUC(0-t) [9]: 13400 ng·h/mL
Cmax [10]: 3.5 µM
clearance [11]: 121 mL/min/kg
Cmax [12]: 16.4 µM
bioavailability [13]: 80%
Kp [14]: 0.15
Kp [15]: 0.31
Vd [16]: 0.9 L/kg
bioavailability [17]: 20%
clearance [18]: 3 mL/min/kg
Cmax [19]: 1.09 µM
Vd [20]: 0.5 L/kg
bioavailability [21]: 85%
Vd [22]: 3.2 L/kg
half-life [23]: 60 min
SMILES: COc1ccc(C(=O)N2CCN(c3ccccn3)CC2)cc1C#Cc1ccccn1
